For experiment [1], the target named is MAPK14 (UniProt Q16539). The experiment is described as follows: CSBP Inhibition. The note with it: concentration not given here.
The target in experiment [2] is MAPK14 (human) (UniProt Q16539). The experiment can be described thus: p38-alpha Kinase Inhibition. The conditions noted are these: for activity: concentration not given here.
For the next experiment, the target named is ROCK2 (rat) (UniProt Q62868). The experiment can be described thus: ROCK-II Kinase Inhibition. The conditions noted are these: concentration not given here.
Experiment [3] addresses EGFR (UniProt P00533). The experiment can be described thus: Inhibition of EGFr Enzyme.
Experiment [4] concerns the target EGFR (mouse) (UniProt P00533). The conditions noted are these: balb/mk.
The target in experiment [5] is EGFR (mouse) (UniProt P00533). The conditions noted are these: Swiss 3T3.
For experiment [6], the target named is CDK2 (UniProt P24941). The experiment can be described thus: Enzyme Assay.
Experiment [7] deals with CDK2 (human) (UniProt P24941). The experiment can be described thus: Enzyme Assay.
Experiment [8] addresses CDK2 (human) (UniProt P24941). The experiment can be described thus: Enzyme Assay. The source holds these as a separate data set.
For experiment [9], the target named is CDK2 (UniProt P24941). The experiment can be described thus: Enzyme Assay. This is another data set of the same source.
In experiment [10] the target is EGFR (human) (UniProt P00533). The note with it: a431.
Chain of EGFR (human) (P00533 whole entry, looked up): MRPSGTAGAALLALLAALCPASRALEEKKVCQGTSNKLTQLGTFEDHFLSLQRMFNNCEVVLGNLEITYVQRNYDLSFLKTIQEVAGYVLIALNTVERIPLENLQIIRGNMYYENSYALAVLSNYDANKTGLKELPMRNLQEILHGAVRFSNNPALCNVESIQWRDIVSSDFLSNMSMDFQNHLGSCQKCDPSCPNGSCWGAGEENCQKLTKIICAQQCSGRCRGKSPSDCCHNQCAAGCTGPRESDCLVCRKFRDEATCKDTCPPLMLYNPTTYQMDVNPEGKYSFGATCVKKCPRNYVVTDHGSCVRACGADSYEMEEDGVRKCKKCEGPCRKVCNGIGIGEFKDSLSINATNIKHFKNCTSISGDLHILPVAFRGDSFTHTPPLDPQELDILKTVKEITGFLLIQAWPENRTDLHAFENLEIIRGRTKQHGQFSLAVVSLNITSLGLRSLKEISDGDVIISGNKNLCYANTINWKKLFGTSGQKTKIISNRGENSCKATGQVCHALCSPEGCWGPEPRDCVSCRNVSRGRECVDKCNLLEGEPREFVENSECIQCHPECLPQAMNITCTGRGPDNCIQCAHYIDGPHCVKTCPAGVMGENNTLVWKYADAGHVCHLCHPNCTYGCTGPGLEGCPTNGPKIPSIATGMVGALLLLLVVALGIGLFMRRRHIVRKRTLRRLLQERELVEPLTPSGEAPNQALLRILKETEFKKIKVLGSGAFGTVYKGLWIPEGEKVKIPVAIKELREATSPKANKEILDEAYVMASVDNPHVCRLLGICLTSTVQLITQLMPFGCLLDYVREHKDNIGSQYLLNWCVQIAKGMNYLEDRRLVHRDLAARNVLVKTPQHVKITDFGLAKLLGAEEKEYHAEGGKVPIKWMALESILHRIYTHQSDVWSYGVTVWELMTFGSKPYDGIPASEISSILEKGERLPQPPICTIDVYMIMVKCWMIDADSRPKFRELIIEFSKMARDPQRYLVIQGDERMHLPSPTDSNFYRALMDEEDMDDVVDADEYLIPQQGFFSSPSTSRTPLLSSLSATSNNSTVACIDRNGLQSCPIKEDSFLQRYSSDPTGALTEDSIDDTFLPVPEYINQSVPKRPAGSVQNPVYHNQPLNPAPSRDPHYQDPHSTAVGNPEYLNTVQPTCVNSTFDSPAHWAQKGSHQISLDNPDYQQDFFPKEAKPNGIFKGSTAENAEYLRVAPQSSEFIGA
Experiment [11] has as its target EGFR (UniProt P00533).
The target of experiment [12] is MAPK14 (UniProt Q16539). The experiment can be described thus: Cascade Assay for Inhibitors of the MAP Kinase Pathway.
For another experiment, the system named is MAPK14 (Drosophila). The experiment is described as follows: p38 Kinase Inhibition. The conditions noted are these: sf9.
Experiment [13] deals with MAPK14 (human) (UniProt Q16539). The experiment is described as follows: p38-mediated TNF-alpha Inhibition (LPS-Stimulated PBMCs). The conditions noted are these: pbmc.
The target in experiment [14] is EGFR (UniProt P00533). This is another data set of the same source.
Chain of EGFR (P00533 whole entry, looked up): as above
The target in experiment [15] is EGFR (human) (UniProt P00533). The conditions noted are these: hn5.
Experiment [16] has as its target EGFR (human) (UniProt P00533).
In experiment [17] the target is EGFR (UniProt P00533). The source holds these as a separate data set.
In experiment [18] the target is MAPK14 (UniProt Q16539). The experiment is described as follows: MAPK Kinase Inhibition.
Experiment [19] has as its target EGFR (UniProt P00533). This is another data set of the same source.
The target in experiment [20] is MAPK14 (human) (UniProt Q16539). The experiment can be described thus: p38 --- TNF Inhibition (PBMC cells).
The target in experiment [21] is EGFR (UniProt P00533). This is another data set of the same source.
Experiment [22] addresses MAPK14 (UniProt Q16539).
For experiment [23], the target named is EGFR (UniProt P00533). The conditions noted are these: balb/c 3t3.
The target in the next experiment is EGFR (murine) (UniProt P00533). The note with it: nih3t3.
Chain of EGFR (murine) (P00533 whole entry, looked up): as above

The structures appear in SMILES notation. pIC50: −log10 of the molar value. Numbered stars: 1 amine (or outer) side, 2 acyl side, 3 side chain; on linkers, the order of the positions; unused ones are H or OH. Square brackets hold non-standard residues; d marks the D form. Residues, ends and D or L forms follow the SMILES beside them. Peptide text beside a SMILES is read from it. ξ: configuration not given here. *: point of attachment. X1 = CC(=O)C(=O)CCc1ccc(CC(N[*:1])C(=O)[*:2])cc1; Ile(3ξ) = CCC(C)[C@H](N)C(=O)O Bounds are passed on as bounds.

Chain of MAPK14 (human) (Q16539 whole entry, looked up): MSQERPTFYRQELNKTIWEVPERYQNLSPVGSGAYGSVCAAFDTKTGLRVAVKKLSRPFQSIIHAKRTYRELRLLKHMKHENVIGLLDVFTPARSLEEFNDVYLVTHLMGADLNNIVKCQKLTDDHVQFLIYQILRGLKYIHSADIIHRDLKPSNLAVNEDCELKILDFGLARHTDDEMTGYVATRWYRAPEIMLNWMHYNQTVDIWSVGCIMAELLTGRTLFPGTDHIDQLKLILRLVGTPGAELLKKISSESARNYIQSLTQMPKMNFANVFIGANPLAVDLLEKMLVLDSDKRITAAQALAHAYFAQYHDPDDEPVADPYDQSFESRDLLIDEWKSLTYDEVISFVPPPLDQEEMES
Chain of MAPK14 (Q16539 whole entry, looked up): as above

`CC(=O)OCCCCc1nc(-c2ccc(F)cc2)c(-c2ccncc2)n1COCC[Si](C)(C)C` came in with an inhibition at MAPK14 [1] of 74%.

Usually pIC50 stands for −log10 of the IC50, conventionally taken in molar units. Read a low pIC50 as a high IC50. For `NC(=O)c1ccc(-c2nc(-c3ccc4c(c3)OCCO4)c(-c3ccccn3)[nH]2)cc1`, the pIC50 on MAPK14 (human) [2] was 4.92. Also, the activity at MAPK14 (human) [2] amounted to 56%; on ROCK2 (rat), 96%. With `COc1cc(OC)c(/C=C2/C(=O)Nc3ccccc32)c(OC)c1`, the values for the activity on MAPK14 (human) [2] and at ROCK2 (rat) were 86% and 96%, respectively. `Cc1cccc(Nc2ncnc3cc(NCCCN4CCCCC4)ncc23)c1` showed a pIC50 on EGFR [3] of 8.25. For `Cc1c(-c2ccccc2)[nH]c2ncnc(Nc3cccc(Cl)c3)c12`, in the experiment with EGFR (mouse) [4], the pIC50 is below 4.30. On to `Cc1nc2cc3nc(-c4ccccc4)cnc3cc2n1C`, for which the negative logarithm of the IC50 (pIC50) in the experiment with EGFR (mouse) [5] was below 4.52. Take `O=C1Nc2ccc(Cl)cc2/C1=C1/Nc2ccccc2C1=O`: the pIC50 was 6.12 against CDK2 [6], 6.12 against CDK2 (human) [7], 6.26 against CDK2 (human) [8] and 6.26 against CDK2 [9]. For the molecule `CC(C)(C)c1cc(C=C(C#N)C#N)cc(C(C)(C)C)c1O`, the pIC50 against EGFR (human) [10] is 7.00. In turn, `COc1cc2cc(C3C=CC=C3)cnc2cc1OC` gave a pIC50 at EGFR [11] below 4.70. Turning to `Clc1cccc(Nc2ncnc3[nH]c(-c4ccccc4)c(-c4ccccc4)c23)c1`, the pIC50 with EGFR (mouse) [4] is below 4.30.

As to `CN(Cc1cccnc1)S(=O)(=O)c1cc(C(=O)O)c(Nc2ccc(I)cc2Cl)c(F)c1F`, the pIC50 at MAPK14 [12] was below 5.52.

In the experiment with MAPK14 (Drosophila), `Cc1cc(F)ccc1-c1nc(N(C(N)=O)c2c(F)cccc2F)ccc1CO` gave a pIC50 of 7.57. `O=C1NCN2N=C(Sc3ccc(F)cc3)C=CC2=C1c1c(Cl)cccc1Cl`: the pIC50 against MAPK14 (human) [13] was 6.41. Molecule `CCC(C)[C@H](NC(=O)[C@H](CCC(=O)O)NC(=O)[C@H](CCC(=O)O)NC(=O)C(Cc1ccc(CCC(=O)C(C)=O)cc1)NC(C)=O)C(=O)N[C@@H](CCC(=O)O)C(=O)O` (stereo partly drawn) (Ac-[X1]EE[Ile(3ξ)]E-OH) gave a pIC50 against EGFR [14] of at least 3.59. `Oc1ccc(-c2nc3ccc(O)cc3s2)cc1` had a negative logarithm of the IC50 (pIC50) at EGFR (human) [15] of 3.89.

For the molecule `C=CC(=O)N1CCC[C@H](n2cnc3c(N)nc(Nc4ccc(N5CCCCC5)cc4)nc32)C1`, the pIC50 against EGFR (human) [16] is 6.46.

Turning to `CNc1cc2ncnc(Nc3cccc(Br)c3)c2cn1`, the negative-log IC50 (pIC50) against EGFR [17] is 7.80; at EGFR [3] it was 9.89. `Cc1cc(C)c(C)c(-c2cc3cnc(N)nc3nc2NC(=O)NC(C)(C)C)c1C` gave a pIC50 against MAPK14 [18] below 4.30. As for `COc1ccc2ncnc(Nc3cccc(Br)c3)c2c1OC`, at EGFR [19], the pIC50 is 5.86. On to `O=c1ncn2nc(Sc3ccc(Cl)c(Cl)c3)ccc2c1-c1c(Cl)cccc1Cl`, for which the pIC50 against MAPK14 (human) [20] was 5.66. As to `CNC(=O)[C@H](CCCCN)NC(=O)[C@H](CCCCN)NC(=O)[C@@H]1CCCN1C(=O)[C@H](CSCCOCCOCCn1cc(C2=C(c3c[nH]c4ccccc34)C(=O)NC2=O)c2ccccc21)NC(C)=O` (Ac-C(X1)PKK-NHMe), the inhibition against EGFR [21] is 0. `O=C1NC(=O)C(c2cn(CCOCCO)c3ccccc23)=C1c1c[nH]c2ccccc12`: the inhibition against EGFR [21] amounted to 0. On to `COCC(=O)NCCn1cnc(-c2ccc(F)cc2)c1-c1ccnc(OCCC2CCCCC2)n1`, for which the pIC50 on MAPK14 [22] is above 4.30.

`Cc1cccc(Nc2ncnc3[nH]c4c(c23)CCCC4)c1` had a pIC50 in the experiment with EGFR (mouse) [4] below 4.30. The molecule `Brc1cccc(Nc2ncnc3c2C2CCCCC2N3)c1` (stereo not drawn) showed a pIC50 at EGFR [23] of 6.30. On to `O=C1Nc2ccccc2/C1=C/c1ccncc1`, for which the pIC50 with EGFR (murine) is below 4.00.

Take `CCOC(=O)C(C#N)=Cc1cc(C(C)(C)C)cc(C(C)(C)C)c1`: on EGFR (human) [10], the pIC50 was 4.70.

At EGFR (human) [16], `C=CC(=O)N1CCC[C@H](n2cnc3c(N)nc(Nc4ccc(OCCOC)cc4)nc32)C1` had a pIC50 of 6.98.

Regarding `O=C1/C(=C2\Nc3ccccc3C2=O)Nc2ccccc21`, the pIC50 against CDK2 [6] is 4.15; against CDK2 (human) [7], 4.15; against CDK2 (human) [8], below 3.00; against CDK2 [9], below 3.00.

In the experiment with EGFR (mouse) [5], `Cc1nc2cc3nc(-c4cccs4)cnc3cc2n1C` showed a pIC50 below 4.52.

`COc1ccc(OC)c(/C=C2\C(=O)Nc3ccccc32)c1` gave a pIC50 in the experiment with EGFR (murine) of 4.96. `COc1cc(OC)cc(-c2cc3cnc(N)nc3nc2NC(=O)NC(C)(C)C)c1`: on MAPK14 [18], the pIC50 is below 4.30. In turn, `COc1ccc(CN(Cc2ccc(OC)cc2)S(=O)(=O)c2cc(C(=O)O)c(Nc3ccc(I)cc3Cl)c(F)c2F)cc1` gave a pIC50 against MAPK14 [12] of 5.52.

The record behind these values is the Kinase Knowledgebase extract (Sharma et al. 2016).
